{"source": "patent EP0410446A1", "about": "“(S)-5-hydroxydecanoic acid and its therapeutic composition” (MOCHIDA PHARMACEUTICAL CO., LTD., priority 1989, dated 1991)", "key": {"[1]": {"system": "ATP regulated K⁺ channels", "assay": "Effect on ATP regulated K⁺ channels in guinea-pig cardiac cells (single channel recording, inside-out patch clamp, opening probability)", "format": "cell-based", "conditions": "for Inhibition rate (%): Dose 3x10⁻⁴ M, single guinea-pig cardiac cells, inside-out patch, opening probability at 0 mV membrane potential", "description": "According to the method described by Kakei, M., et al., ( J. Physiol., 363 441-462, 1985 ), single cardiac cells were prepared. Guinea-pigs were anesthetized with an intraperitoneally injection of pentobarbital sodium with 30 mg/kg and the chest was opened under artificial respiration. The aorta was cannulated in situ to perfuse the coronary arteries with Tyrode solution (NaCl 136.1, KCl 5.4, CaCl₂ 1.8, MgCl₂ 0.5, NaH₂PO₄ 0.33, glucose 5.5, N-2-hydroxyethylpiperazine-N′-2-ethanesulfonic acid (HEPES) 5.0, each in mM, and the pH was adjusted to 7.4 with NaOH), then the heart was dissected out and mounted on Langendorff apparatus to perfuse. After blood was washed out by Tyrode solution, the heart was perfused with the 100 ml of Ca²⁺-free Tyrode solution and then with Ca²⁺-free Tyrode solution containing 0.17 mg/ml collagenase for 5-20 minutes. Subsequently, the enzyme was washed out from the heart with the 100 ml of KB solution (taurine 10, oxalic acid 10, glutamic acid 80, KCl 25, KH₂PO₄ 10, HEPES 10, glucose 11, ethyleneglycolbis(β-aminoethylether)-N,N′-tetraacetic acid (EGTA) 0.5, each in mM, and the pH was adjusted to 7.4 with KOH) and the heart was stored in KB solution at 4°C for at least 1 hour. Before electrical recording, a part of ventricular muscle was dissected and was shaken in recording chamber (0.7 ml) filled with Tyrode solution to disperse each cells. The method of single channel electrical recording was essentially the same as described by Hamill, A., et al., (Pflugers Arch., 391 85-100, 1981 ). Glass electrodes were made from Pyrex glass capillaries by use of a puller (2 - 10 MΩ) and were heated to polish just before use. An electrode solution was KCl 5.4, NaCl 144.6, CaCl₂ 2, HEPES 5 (each in mM) and the pH was adjusted to 7.4 with NaOH. After dispersed cells sank and adhered to the bottom of recording chamber, high K⁺ solution (KCl 140, MgCl₂ 1.0, KH₂PO₄ 0.5, EGTA 1.0, HEPES 5.0, each in mM, and the pH was adjusted to 7.4 with KOH) was perfused at flow rate of 2 - 3 ml/minute. After established a high seal resistance (5 - 20 GΩ) obtained by attaching an electrode to a cell membrane and applying suction (0 - -50 cm H₂O), a channel current was detected by inside-out configuration by use of a patch clamp amplifier (8900, DAGAN) at a filter setting of 1 KHz. A channel current and a membrane potential were monitored by an oscilloscope and were recorded by a datarecorder. An opening probability, that is a ratio of channel opening period to recording period, were analyzed by using a p-CLAMP (AXON) at 0 mV of a membrane potential. Compounds were dissolved in high K⁺ solution to be perfused."}, "[2]": {"system": "male ddY mice", "format": "in vivo", "conditions": "1 g/kg, five male ddY mice, observed for one week", "description": "Five male ddY mice weighting about 25 g were orally administered once or intraperitoneally injected once with 1 g/kg of sodium (S)-5-hydroxydecanoate."}}, "note": "Where two headings read alike, the source gives them in different places.", "data": [{"smiles": "CCCCCC(O)CCCC(=O)[O-].[Na+]", "note": "(racemic) [(R,S)-5-HD, Sodium 5-hydroxydecanoate]", "values": [{"measurement": "Inhibition rate (%)", "setting": "[1]", "value": 30, "unit": "%"}]}, {"smiles": "CCCCC[C@H](O)CCCC(=O)[O-].[Na+]", "note": "[(S)-5-HD, sodium (S)-5-hydroxydecanoate]", "values": [{"measurement": "Inhibition rate (%)", "setting": "[1]", "value": 69, "unit": "%"}, {"measurement": "inhibitory effect on ATP regulated K⁺ channels compared with racemate", "setting": "[1]; comparison of the values in table 1, 3x10⁻⁴ M", "value": "about twice as good as racemate"}, {"measurement": "Acute toxicity (abnormality, death)", "setting": "[2]; intraperitoneally injected once", "value": "no abnormality occurred and no animal died"}, {"measurement": "Acute toxicity (abnormality, death)", "setting": "[2]; orally administered once", "value": "no abnormality occurred and no animal died"}]}, {"smiles": "CCCCC[C@@H](O)CCCC(=O)[O-].[Na+]", "note": "[(R)-5-HD, Sodium 5-hydroxydecanoate]", "values": [{"measurement": "Inhibition rate (%)", "setting": "[1]", "value": 10, "unit": "%"}, {"measurement": "activity on ATP regulated K⁺ channels (in words)", "setting": "[1]; summary of table 1, 3x10⁻⁴ M", "value": "few activity"}]}]}
